Key:
[1] = target: T1, PYR1-HAB1 (Arabidopsis thaliana, UniProt O49686); test: Yeast two-hybrid BD-PYR1 / AD-HAB1 interaction, X-gal stain; type: cell-based; conditions: 10 μM, except epi-brassinolide (50 nM)
T1 construct: the Pyr1 open reading frame was PCR amplified from genomic DNA; expressed in transfected cells; host or cells: yeast strain Y190
T1 sequence (O49686 1-191): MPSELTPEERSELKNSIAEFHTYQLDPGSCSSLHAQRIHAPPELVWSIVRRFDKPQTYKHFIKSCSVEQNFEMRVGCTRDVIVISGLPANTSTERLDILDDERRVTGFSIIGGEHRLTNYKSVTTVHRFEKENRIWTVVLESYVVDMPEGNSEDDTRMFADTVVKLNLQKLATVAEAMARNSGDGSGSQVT
T1 sequence (Q9CAJ0 23-511 partner): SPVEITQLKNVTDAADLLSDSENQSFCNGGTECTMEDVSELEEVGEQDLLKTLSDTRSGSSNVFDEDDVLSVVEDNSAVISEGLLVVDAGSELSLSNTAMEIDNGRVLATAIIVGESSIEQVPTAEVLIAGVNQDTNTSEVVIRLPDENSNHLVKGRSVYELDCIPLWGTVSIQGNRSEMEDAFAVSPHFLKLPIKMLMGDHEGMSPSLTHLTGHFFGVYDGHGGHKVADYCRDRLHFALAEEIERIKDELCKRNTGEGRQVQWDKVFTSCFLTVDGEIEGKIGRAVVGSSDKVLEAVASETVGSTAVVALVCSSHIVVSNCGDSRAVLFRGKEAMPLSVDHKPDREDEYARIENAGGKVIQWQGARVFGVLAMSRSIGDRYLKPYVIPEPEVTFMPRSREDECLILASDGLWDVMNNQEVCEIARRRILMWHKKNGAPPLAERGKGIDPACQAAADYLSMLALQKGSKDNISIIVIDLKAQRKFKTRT
Method: Given that PYR1 is necessary for pyrabactin action and is a predicted ligand-binding protein, we hypothesized that pyrabactin agonizes ABA signaling by inducing a protein-protein interaction between PYR1 and a downstream effector. To test this, ˜2 million prey cDNA clones were screened against a PYR1 Y2H bait construct on media containing 10 μM pyrabactin. To create the PYR1 Y2H bait construct, the Pyr1 open reading frame was PCR amplified from genomic DNA and cloned to pGem-T easy vector (Promega). After sequence confirmation, the Pyr1 ORF was then cloned in-frame between EcoRI and SalI sites of the pBD-GAL4 Cam vector (Stratagene) and transformed into yeast strain Y190. For the screen, an etiolated seedling cDNA library (J. Kim, K., Harter, A., Theologis, Proc Natl Acad Sci USA 94, 11786 (Oct. 28, 1997)) (ABRC stock CD4-22) was used. The cDNA library was first converted from phage to plasmid DNA, yielding 7.6×10^7 transformants. Plasmid DNA prepared from library was then used to transform Y190 as described in the GAL4 Two-Hybrid system manual (Stratagene). For each screen, 40 μg of prey plasmid was transformed into 1 ml of competent Y190 cell harboring bait construct and then grown on SD agar plates lacking His, Leu, and Trp, but containing 15 mM 3-AT and 10 μM pyrabactin. After 4 days incubation at 30° C., well-grown colonies were rescued and interactions validated using filter lift assay or chloroform-agarose overlay method and X-Gal staining. This identified two pyrabactin-dependent hits which sequencing determined encoded cDNAs for the PP2C HAB1, a close relative of the well-characterized ABA response factor ABI1 (A. Saez et al., The Plant Journal 37, 354 (2004); N. Leonhardt et al., THE PLANT CELL 16, 596 (2004)). Next, Y2H strains expressing an AD-HAB1 fusion protein and a BD-PYR1 fusion protein were grown on plates and tested for interactions in response to various compounds, all at 10 μM except for epi-brassinolide (50 nM) and dimethyl sulfoxide (DMSO) (carrier solvent, 1%). […] Thus, PYR1 interacts with HAB1 in a (+)-ABA dependent fashion.

[2] = target: T2, PYR1 and PP2Cs (GST-HAB1, GST-ABI1, GST-ABI2) (Arabidopsis thaliana, UniProt O49686); test: Pull-down assay of 6×His-PYR1 with GST-PP2Cs; type: binding; conditions: purified recombinant proteins; 10 μM (+)-ABA
T2 construct: made in house; host or cells: E. coli BL21[DE3]pLysS
T2 sequence (O49686 1-191): T1 sequence (O49686 1-191)
T2 sequence (Q9CAJ0 1-511 partner): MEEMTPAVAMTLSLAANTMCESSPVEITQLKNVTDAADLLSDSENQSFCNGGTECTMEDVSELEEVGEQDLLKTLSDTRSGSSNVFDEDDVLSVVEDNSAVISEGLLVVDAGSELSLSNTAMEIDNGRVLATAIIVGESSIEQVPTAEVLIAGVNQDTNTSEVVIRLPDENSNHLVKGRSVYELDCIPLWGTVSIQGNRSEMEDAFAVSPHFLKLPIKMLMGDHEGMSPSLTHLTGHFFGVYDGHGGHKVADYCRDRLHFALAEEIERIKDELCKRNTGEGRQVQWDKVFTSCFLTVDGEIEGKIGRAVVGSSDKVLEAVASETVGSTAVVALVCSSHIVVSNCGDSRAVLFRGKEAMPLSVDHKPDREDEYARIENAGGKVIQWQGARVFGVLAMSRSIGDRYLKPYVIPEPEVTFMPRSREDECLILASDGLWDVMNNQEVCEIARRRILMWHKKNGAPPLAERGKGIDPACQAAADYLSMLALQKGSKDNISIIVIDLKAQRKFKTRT
Method: To explore the functional implications of the PYR1-PP2C interaction, we examined if an ABA response could be reconstituted in vitro. Recombinant GST-HAB1, GST-ABI1 and GST-ABI2 were expressed in E. coli and tested for ligand-dependent interactions with 6×His-PYR1 in pull-down assays. Purified 6×His-PYR1 and GST-HAB1 (20 and 100 μg respectively, 8 μM PYR1 final concentration), were combined in 100 μl TBS containing 10 μM (+)-ABA or 1% DMSO for negative control. The reaction was incubated for 90 minutes at RT and 5 μl of PrepEase (USB) His-tagged protein purification resin was added. The resin and reaction mixture was incubated 30 min at RT with gentle shaking at 5 min intervals. The resin was washed five times with TBS containing 10 μM (+)-ABA. After the final wash, the bound protein was eluted in 20 μl SDS-PAGE buffer, boiled for 5 minutes and centrifuged. 5 μl of eluate was analyzed on SDS-PAGE. For pull-downs with ABI1 and ABI2, crude lysates were used in a similar method, except purified PP2C was replaced with cleared E. coli lysates. The amount of lysate added was determined by SDS-page analysis to yield ˜100 μg PP2C, such that the same stoichiometry was used as in assays using purified proteins.

SMILES | PYR1-HAB1 interaction by X-gal stain [1] | ligand-dependent PP2C interaction with 6×His-PYR1 in pull-down [2]
CC1=CC(=O)CC(C)(C)C1(O)/C=C/C(C)=C\C(=O)O (single isomer, unassigned; (+)) [(+)-ABA] | strong interactions | promote PP2C interactions with PYR1
O=S(=O)(NCc1ccccn1)c1ccc(Br)c2ccccc12 [pyrabactin] | promotes interactions | promote PP2C interactions with PYR1
